Data as given in patent US10912743B2, “Compositions for treating inflammation and methods of treating the same” (Novan, Inc., priority 2016, dated 2021).
Marks after values point to notes of the source that are not given here.

Legend:
[1] = system: oxazolone-induced ear swelling; assay: Oxazolone-induced ear swelling assay in BALB/c mice; assay type: in vivo
Protocol: Groups of 5 BALB/c male mice weighing 22±2 g were used. The animals were sensitized by application of oxazolone (100 μL, 1.5% in acetone) to their preshaved abdominal surface. Seven days later, test substances (20 mg/ear) and vehicle (20 μL/ear) were applied topically to the anterior and posterior surfaces of the right ear 30 min before and 15 min after oxazolone (1%, 20 μL/ear) challenge. Ear swelling was measured with a Dyer model micrometer gauge at 24 hours after oxazolone challenge as an index of inflammation. Ear edema was calculated by subtracting the thickness of the left ear (normal control) from the right ear (treated ear). Percent inhibition was calculated according to the formula: (Ic −It)/Ic×100, where Ic and It refers to increase of ear thickness (mm) in control and treated mice, respectively. One-way ANOVA and Dunnett's test were used to determine statistical significance between vehicle control and treated groups. Significance is set at P<0.05.
Test substances and vehicles were each administered topically (TOP) at 30 minutes before and 15 minutes after challenge with the second application of oxazolone.
The test system used was a 7-day oxazolone-induced ear swelling assay. […] Ear swelling was measured with a Dyer model micrometer gauge at 24 hours after oxazolone challenge as an index of inflammation. Ear edema was calculated by subtracting the thickness of the left ear (normal control) from the right ear (treated ear) (Table 9). […] Percent inhibition was calculated according to the formula: (Ic−It)/Ic×100, where Ic and It refer to increase of ear thickness (mm) in control and treated mice, respectively. […]
BALB/c mice are sensitized with oxazolone exposure to the abdomen and are subsequently challenged (7 days post-sensitization) with oxazolone application to the right ear. […] The effect of anti-inflammatory test articles is then assessed by measuring the amount of ear swelling, which is reported as a percentage in comparison to the study vehicle. […]

Th17/IL-17 pathway = details: skin biopsies stimulated with cytokine cocktail 48 hrs; cited from earlier work

Row | Structure (SMILES) | Ear Swelling % Inhibition (vs. Vehicle A) ([1]; Example 2 study, TOP x 2 (30 min before, 15 min after oxazolone challenge), 24 hours, vs acetone/ethanol 1/1) | % inhibition of oxazolone-induced ear swelling vs ethanol/acetone ([1]; Example 4 study, TOP x 2, 24 hours) | Net Swelling on Right Ear (Mean ± SEM, ×0.01 mm) ([1]; Example 4 study, TOP x 2, 24 hours after oxazolone challenge) | IL-17 secretion (Th17/IL-17 pathway)
1 | C[C@@H]1C[C@H]2[C@@H]3CCC4=CC(=O)C=C[C@]4(C)[C@@]3(F)[C@@H](O)C[C@]2(C)[C@@]1(O)C(=O)CO [Dexamethasone] | 85* % | 86% | 3.2 ± 0.4 ×0.01 mm | –
2 | C=C1/C(=C\C=C2/CCC[C@]3(C)[C@@H]([C@H](C)/C=C/[C@@H](O)C4CC4)CC[C@@H]23)C[C@@H](O)C[C@@H]1O [calcipotriol] | – | – | – | partial inhibition of IL-17 secretion
